Reference: the NIST ThermoML archive (doi:10.1021/je050196o)

What was measured:
[1] = xn = mol fraction of the nth substance listed; conditions: 101 kPa, Liquid; for viscosity: Capillary tube (Ostwald / Ubbelohde) method; for mass density: Pycnometric method
[2] = 101 kPa, Liquid; for viscosity: Capillary tube (Ostwald / Ubbelohde) method; for mass density: Pycnometric method

COCC(C)OC(C)=O (configuration not stated) [1-methoxy-2-propyl acetate] + C=C(C)C(=O)OCCO
[1], x1 = 1
Conditions | mass density [kg/m3] | viscosity [mPa·s]
298.15 K | 961.4 | 1.071
308.15 K | 951.4 | 0.904
318.15 K | 940.7 | 0.777

C=C(C)C(=O)OCc1ccccc1 [benzyl methacrylate] + COCC(C)OC(C)=O
[1]
Conditions | mass density, 298.15 K [kg/m3] | mass density, 308.15 K [kg/m3] | mass density, 318.15 K [kg/m3] | viscosity, 298.15 K [mPa·s] | viscosity, 308.15 K [mPa·s] | viscosity, 318.15 K [mPa·s]
x2 = 0 | 1034.7 | 1025.8 | 1017 | 2.302 | 1.885 | 1.58
x2 = 0.1 | 1029 | 1019.9 | 1010.9 | 2.245 | 1.84 | 1.544
x2 = 0.2 | 1023.1 | 1013.8 | 1004.6 | 2.123 | 1.743 | 1.465
x2 = 0.3 | 1017 | 1007.6 | 998.2 | 1.991 | 1.638 | 1.377
x2 = 0.4 | 1010.6 | 1001.1 | 991.5 | 1.857 | 1.53 | 1.289
x2 = 0.4999 | 1003.8 | 994.2 | 984.4 | 1.694 | 1.399 | 1.183
x2 = 0.6 | 996.6 | 986.9 | 976.9 | 1.559 | 1.286 | 1.086
x2 = 0.7 | 989 | 979.2 | 969 | 1.434 | 1.189 | 1.007
x2 = 0.8 | 980.7 | 970.7 | 960.3 | 1.327 | 1.105 | 0.937
x2 = 0.9 | 971.9 | 961.8 | 951.2 | 1.232 | 1.028 | 0.874

C=C(C)C(=O)OCc1ccccc1 [benzyl methacrylate]
[2]
Conditions | mass density [kg/m3] | viscosity [mPa·s]
298.15 K | 1034.7 | 2.302
308.15 K | 1025.8 | 1.885
318.15 K | 1017 | 1.58

C=C(C)C(=O)OCCO [2-hydroxyethyl 2-methyl-2-propenoate]
[2]
Conditions | mass density [kg/m3] | viscosity [mPa·s]
298.15 K | 1067.1 | 5.784
308.15 K | 1057.7 | 4.194
318.15 K | 1048.6 | 3.181

C=C(C)C(=O)O [2-methyl-2-propenoic acid]
[2]
Conditions | mass density [kg/m3] | viscosity [mPa·s]
298.15 K | 1009.5 | 1.267
308.15 K | 999.4 | 1.078
318.15 K | 989.2 | 0.945

C=C(C)C(=O)OCCO [2-hydroxyethyl 2-methyl-2-propenoate] + COCC(C)OC(C)=O
[1]
Conditions | mass density, 298.15 K [kg/m3] | mass density, 308.15 K [kg/m3] | mass density, 318.15 K [kg/m3] | viscosity, 298.15 K [mPa·s] | viscosity, 308.15 K [mPa·s] | viscosity, 318.15 K [mPa·s]
x2 = 0 | 1067.1 | 1057.7 | 1048.6 | 5.784 | 4.194 | 3.181
x2 = 0.1 | 1056.4 | 1046.7 | 1037.3 | 4.764 | 3.519 | 2.71
x2 = 0.2 | 1045.7 | 1035.9 | 1026.1 | 3.84 | 2.9 | 2.273
x2 = 0.3 | 1034.9 | 1025 | 1015.1 | 3.222 | 2.477 | 1.969
x2 = 0.4 | 1024.1 | 1014.2 | 1004.1 | 2.719 | 2.123 | 1.709
x2 = 0.5 | 1013.5 | 1003.5 | 993.3 | 2.257 | 1.79 | 1.461
x2 = 0.6 | 1003 | 993 | 982.6 | 1.922 | 1.55 | 1.284
x2 = 0.7 | 992.6 | 982.5 | 972 | 1.651 | 1.341 | 1.117
x2 = 0.8 | 982.2 | 971.9 | 961.3 | 1.389 | 1.147 | 0.969
x2 = 0.8999 | 971.8 | 961.5 | 950.8 | 1.234 | 1.052 | 0.889

C=C(C)C(=O)O [2-methyl-2-propenoic acid] + COCC(C)OC(C)=O
[1]
Conditions | mass density, 298.15 K [kg/m3] | mass density, 308.15 K [kg/m3] | mass density, 318.15 K [kg/m3] | viscosity, 298.15 K [mPa·s] | viscosity, 308.15 K [mPa·s] | viscosity, 318.15 K [mPa·s]
x2 = 0 | 1009.5 | 999.4 | 989.2 | 1.267 | 1.078 | 0.945
x2 = 0.1 | 1004 | 994.1 | 983.9 | 1.423 | 1.202 | 1.033
x2 = 0.2 | 999 | 989.3 | 979.4 | 1.506 | 1.301 | 1.105
x2 = 0.3 | 993.9 | 984.1 | 973.9 | 1.56 | 1.345 | 1.124
x2 = 0.3999 | 989.1 | 979.2 | 968.9 | 1.585 | 1.348 | 1.125
x2 = 0.5 | 984.8 | 975 | 964.8 | 1.569 | 1.31 | 1.1
x2 = 0.6 | 980.1 | 970.3 | 959.9 | 1.499 | 1.24 | 1.049
x2 = 0.7 | 975.8 | 966 | 955.5 | 1.411 | 1.168 | 0.988
x2 = 0.7999 | 970.8 | 960.9 | 950.5 | 1.301 | 1.081 | 0.929
x2 = 0.9 | 965.8 | 956 | 945.6 | 1.175 | 0.985 | 0.844

COCC(C)OC(C)=O (configuration not stated) [1-methoxy-2-propyl acetate]
[2]
Conditions | mass density [kg/m3] | viscosity [mPa·s]
298.15 K | 961.4 | 1.071
308.15 K | 951.4 | 0.904
318.15 K | 940.7 | 0.777

COCC(C)OC(C)=O (configuration not stated) [1-methoxy-2-propyl acetate] + C=C(C)C(=O)OCc1ccccc1
[1], x1 = 1
Conditions | mass density [kg/m3] | viscosity [mPa·s]
298.15 K | 961.4 | 1.071
308.15 K | 951.4 | 0.904
318.15 K | 940.7 | 0.777

COCC(C)OC(C)=O (configuration not stated) [1-methoxy-2-propyl acetate] + C=C(C)C(=O)O
[1], x1 = 1
Conditions | mass density [kg/m3] | viscosity [mPa·s]
298.15 K | 961.4 | 1.071
308.15 K | 951.4 | 0.904
318.15 K | 940.7 | 0.777
